Measurements taken from patent US10150733B2, “Amidoheteroaryl aroyl hydrazide ethynes” (SUN PHARMA ADVANCED RESEARCH COMPANY LTD., priority 2015, dated 2018).

Columns and labels:
[1] = system: c-Abl kinase (K562 cells); test: In-vitro cell proliferation assay (MTT), K562 cells; format: cell-based; details: for inhibition at 0.001 µM / inhibition at 0.01 µM / inhibition at 0.1 µM: Homo sapiens
Description: In-vitro Cell Proliferation Assay
K562/U937 cells (2×10^4 per well) were incubated with the test compounds/vehicle in a total volume of 200 μL of media at 37° C. with 5% CO2. On day 4, 20 μL MTT 5 mg/ml was added and the cells were incubated for 4-5 hours followed by addition of 100 μL of 10% SDS prepared in 0.06N HCl. The cells were incubated overnight at 37° C. with 5% CO2. On Day 5 the optical density was measured at 570 nm with 630 nm as reference wavelength. The optical density in the vehicle treated wells was compared with that of the test compound treated wells.

[2] = target: mutated Abl (T315I) (human) (Homo sapiens, UniProt P00519, T315I); test: Mutated Abl (T315I) (human) kinase assay, 33P-ATP filter binding; format: biochemical; details: for inhibition at 0.003 µM: 3 nM; for inhibition at 0.03 µM: 30 nM
Description: Mutated Abl (T315I) (Human)Kinase
In a final reaction volume of 25 μL, mutated Abl (T315I) (human) (5-10 mU) is incubated with 8 mM MOPS pH7.0, 0.2 mM EDTA, […] EAIYAAPFAKKK, 10 mM Mg(OAc)2 and [γ-33P-ATP] [specific activity approx. 500 cpm/pmol, concentration as required]. The reaction is initiated by the addition of the MgATP mix. After incubation for 40 minutes at room temperature, the reaction is stopped by the addition of 5 μL of a 3% phosphoric acid solution. 10 μL of the reaction is then spotted onto a P30 filtermat and washed three times for 5 minutes in 75 mM phosphoric acid and once in methanol prior to drying and scintillation counting.

| Compound | inhibition at 0.003 µM [2] | inhibition at 0.03 µM [2] | inhibition at 0.001 µM ([1]; 1 nM) | inhibition at 0.01 µM ([1]; 10 nM) | inhibition at 0.1 µM ([1]; 100 nM) | c-Abl kinase (K562 cells); % Inhibition ([1]; 1 nM) | c-Abl kinase (K562 cells); % Inhibition ([1]; 10 nM) | c-Abl kinase (K562 cells); % Inhibition ([1]; 100 nM) |
| --- | --- | --- | --- | --- | --- | --- | --- | --- |
| CCCC(=O)Nc1ccc(C#Cc2cc(C(=O)NNC(=O)c3c(C)cccc3Cl)ccc2C)cn1 [I.12] | – | – | – | – | – | 33.6% | 80.6% | – |
| Cc1ccc(C(=O)NNC(=O)c2c(C)cccc2Cl)cc1C#Cc1ccc(NC(=O)C(F)(F)F)nc1 [I.10] | – | – | – | – | – | 39.8% | 78.5% | 73.3% |
| Cc1ccc(C(=O)NNC(=O)c2ccc(CN3CCN(C)CC3)cc2)cc1C#Cc1ccc(NC(=O)C2CC2)nc1 [I.7, Cyclopropanecarboxylic acid [5-(2-methyl-5-{N′-[4-(4-methylpiperazin-1-ylmethyl)benzoyl]-hydrazinocarbonyl}phenylethynyl)pyridin-2-yl]amide] | – | – | 24.6% | 78.6% | 85.9% | – | – | – |
| Cc1cn(-c2cc(C(=O)NNC(=O)c3ccc(C)c(C#Cc4ccc(NC(=O)C5CC5)nc4)c3)cc(C(F)(F)F)c2)cn1 [I.8, Cyclopropanecarboxylic acid [5-(2-methyl-5-{N′-[3-(4-methylimidazol-1-yl)-5-trifluoromethylbenzoyl]-hydrazinocarbonyl}phenylethynyl)pyridin-2-yl]amide] | – | – | 68.9% | 84% | 86.1% | – | – | – |
| Cc1ccc(C(=O)NNC(=O)c2c(C)cccc2Cl)cc1C#Cc1ccc(NC(=O)NC2CC2)nc1 [I.9, 1-(5-{5-[N′-(2-Chloro-6-methyl-benzoyl)-hydrazinocarbonyl]-2-methyl-phenylethynyl}-pyridin-2-yl)-3-cyclopropylurea] | – | – | 61% | 83.6% | 87.8% | – | – | – |
| Cc1ccc(C(=O)NNC(=O)c2ccc(CN3CCN(C)CC3)c(C(F)(F)F)c2)cc1C#Cc1ccc(NC(=O)C2CC2)nc1 [I.11, Cyclopropanecarboxylic acid [5-(2-methyl-5-{N′-[4-(4-methylpiperazin-1-yl-methyl)-3-trifluoromethylbenzoyl]-hydrazinocarbonyl}phenylethynyl)pyridin-2-yl]amide] | – | – | 54% | 58.3% | 57.2% | – | – | – |

Second part, led by results:

| inhibition at 0.003 µM [2] | inhibition at 0.03 µM [2] | Compound | inhibition at 0.001 µM ([1]; 1 nM) | inhibition at 0.01 µM ([1]; 10 nM) | inhibition at 0.1 µM ([1]; 100 nM) | c-Abl kinase (K562 cells); % Inhibition ([1]; 1 nM) | c-Abl kinase (K562 cells); % Inhibition ([1]; 10 nM) | c-Abl kinase (K562 cells); % Inhibition ([1]; 100 nM) |
| --- | --- | --- | --- | --- | --- | --- | --- | --- |
| 66% | 96% | Cc1ccc(C(=O)NNC(=O)c2c(C)cccc2Cl)cc1C#Cc1ccc(NC(=O)CN2CCC(N(C)C)C2)nc1 (centres unmarked) [I.5, N-(5-{5-[N′-(2-Chloro-6-methyl-benzoyl)hydrazinocarbonyl]-2-methyl-phenylethynyl}-pyridin-2-yl)-2-(3-dimethylaminopyrrolidin-1-yl)acetamide] | 71.4% | 81.7% | 82.1% | – | – | – |
| 87% | 98% | Cc1ccc(C(=O)NNC(=O)c2c(C)cccc2Cl)cc1C#Cc1ccc(NC(=O)C2CC2)nc1 [I.1, cyclopropanecarboxylic acid (5-{5-[N′-(2-chloro-6-methylbenzoyl)hydrazinocarbonyl]-2-methyl-phenylethynyl}-pyridin-2-yl)amide] | 84.7% | 91.1% | 87% | – | – | – |
| 68% | 89% | CC(=O)Nc1ccc(C#Cc2cc(C(=O)NNC(=O)c3c(C)cccc3Cl)ccc2C)cn1 [I.6, N-(5-{5-[N′-(2-Chloro-6-methyl-benzoyl)hydrazinocarbonyl]-2-methyl-phenylethynyl}-pyridin-2-yl)acetamide] | 88.4% | 91.6% | 91% | – | – | – |
| 50% | 87% | Cc1ccc(C(=O)NNC(=O)c2c(C)cccc2Cl)cc1C#Cc1ccc(NC(=O)CN(C)C)nc1 [I.2, N-(5-{5-[N′-(2-chloro-6-methylbenzoyl)hydrazinocarbonyl]-2-methyl-phenylethynyl}-pyridin-2-yl)-2-dimethylaminoacetamide] | 71.6% | 82.5% | 82.9% | – | – | – |
| 59% | 94% | Cc1ccc(C(=O)NNC(=O)c2c(C)cccc2Cl)cc1C#Cc1ccc(NC(=O)CCN2CCN(C)CC2)nc1 [I.3, N-(5-{5-[N′-(2-Chloro-6-methylbenzoyl)hydrazinocarbonyl]-2-methyl-phenylethynyl}-pyridin-2-yl)-3-(4-methyl-piperazin-1-yl)propionamide] | 75% | 85.5% | 87.9% | – | – | – |
| 70% | 95% | Cc1ccc(C(=O)NNC(=O)c2c(C)cccc2Cl)cc1C#Cc1ccc(NC(=O)CN2CCC(N(C)C)CC2)nc1 [I.4, N-(5-{5-[N′-(2-Chloro-6-methyl-benzoyl)hydrazinocarbonyl]-2-methyl-phenylethynyl}-pyridin-2-yl)-2-(4-dimethylaminopiperidin-1-yl)acetamide] | 76.5% | 81.4% | 86.9% | – | – | – |
